# Measurements from publication PMC12329412, “Study of the mass balance, biotransformation, and safety of [^14C]IBI351 in healthy Chinese subjects” (Journal of Biomedical Research, 2024).
# What was measured:
# [1] = Radioactive metabolite profiling in pooled plasma, urine and feces; format: in vivo, human; conditions: for Plasma (0–144 h) % of AUC (share of total plasma radioactivity exposure) / Plasma (0–144 h) Metabolite/parent drug (%): pooled plasma 0–144 h; for Plasma (0–144 h) Metabolite/parent drug (%): relative to the parent drug; for Feces+urine % of dose: sum of feces 0–192 h and urine 0–96 h; for Feces (0–192 h) % of dose: pooled feces 0–192 h
# Experimental: Moreover, four plasma samples at 1 h, 4 h, 48 h, and 96 h were obtained by mixing them in equal volumes. Urine samples were pooled across individuals at an equal volume to obtain one pooled sample within each time period of 0–24 h, 24–48 h, and 48–96 h. Fecal samples (0–192 h) were pooled at the same weight percentages across collection intervals for each subject. Moreover, fecal samples were pooled across individuals at an equal weight to obtain one pooled sample within each time period of 0–72 h, 72–120 h, and 120–192 h. Plasma, urine, and fecal homogenates were extracted and concentrated using organic solvents, and then the redissolved solutions were used for metabolite profile analysis. The plasma, urine, and fecal extracts were separated on HPLC columns, and the HPLC flow fractions were collected in Deepwell LumaPlateTM-96 plates at 15 s/fraction using an automatic fraction collector. The radioactivity of each fraction was quantified using a microplate detector with ARC® Convert and Evaluation software (3.0.2.379) and transformed to obtain the radioactive metabolite spectra. The radioactive metabolite spectra of each sample were integrated to acquire the peak area of each radioactive metabolite peak, the proportion of each spectral peak to the total radioactive intensity of the sample, and the proportion of the radioactivity of the major metabolites to the TRA in the corresponding blood, urine, and fecal samples. Therefore, the ratio of metabolites' concentrations to the total drug exposure (AUC) in the plasma and the ratio of each metabolite's level to the dose administered in the urine and feces were calculated. Liquid chromatography with low-energy radionuclide detection and mass spectrometry was used to identify the main metabolites in human plasma, urine, and fecal samples and to identify the possible biotransformation pathways of IBI351 in these samples.
# [2] = ref [11],[19]; cited from earlier work
SMILES,Plasma (0–144 h) % of AUC (share of total plasma radioactivity exposure) [1],Plasma (0–144 h) Metabolite/parent drug (%) [1],Feces+urine % of dose [1],Feces (0–192 h) % of dose [1],Urine (0–96 h) % of dose ([1]; pooled urine 0–96 h),average time to reach Cmax [2],grade of associated adverse events [2],terminal elimination half-life [2],volume of distribution [2],plasma protein binding rate [2]
C=CC(=O)N1CCN(c2nc(=O)n(-c3c(C)ccnc3C(C)C)c3nc(-c4c(O)cccc4F)c(F)cc23)[C@@H](C)C1 [sotorasib],–,–,–,–,–,1 h,≥ 3,5 h,211 L,–
C=C(F)C(=O)N1CCN(c2nc(OC[C@@H]3CCCN3C)nc3c2CCN(c2cccc4cccc(Cl)c24)C3)C[C@@H]1CC#N [adagrasib],–,–,–,–,–,6 h,–,23 h,942 L,98%

# Further lines, with some results ahead:
Plasma (0–144 h) % of AUC (share of total plasma radioactivity exposure) [1],Plasma (0–144 h) Metabolite/parent drug (%) [1],Feces+urine % of dose [1],Feces (0–192 h) % of dose [1],Urine (0–96 h) % of dose ([1]; pooled urine 0–96 h),SMILES,average time to reach Cmax [2],grade of associated adverse events [2],terminal elimination half-life [2],volume of distribution [2],plasma protein binding rate [2]
0.09 % of AUC,1.98%,0.35 % of dose,–,–,CCC(=O)N1CCN2c3c(c(=O)n(-c4c(C)ccnc4C(C)C)c4nc(-c5c(O)cccc5F)c(Cl)cc34)N(C)C(=O)C2C1 (centres unmarked) [M618],–,–,–,–,–
6.17 % of AUC,135.90%,45.36 % of dose,39.87 % of dose,5.49 % of dose,Cc1ccnc(C(C)C)c1-n1c(=O)c2c(c3cc(Cl)c(-c4c(O)cccc4F)nc31)N1CCN(C(=O)CCSCC(N)C(=O)O)CC1C(=O)N2C (centres unmarked) [M737],–,–,–,–,–
0.05 % of AUC,1.10%,2.70 % of dose,2.59 % of dose,–,CC(=O)NC(CSCCC(=O)N1CCN2c3c(c(=O)n(-c4c(C)ccnc4C(C)C)c4nc(-c5c(O)cccc5F)c(Cl)cc34)N(C)C(=O)C2C1)C(=O)O (centres unmarked) [M779],–,–,–,–,–
–,5.95%,2.70 % of dose,2.47 % of dose,–,Cc1ccnc(C(C)C)c1-n1c(=O)c2c(c3cc(Cl)c(-c4c(O)cccc4F)nc31)N1CCN(C(=O)C(O)CO)CC1C(=O)N2C (centres unmarked) [M650],–,–,–,–,–
